From US8734863B2, “Bioactive fraction of Petiveria alliacea, pharmaceutical composition containing same, and combination with immunostimulants for treating cancer” (Pontificia Universidad Javeriana, priority 2009, dated 2014)

How the values were obtained:
[1] = test system: tumour cell line NB4; assay: Chromatin condensation and nuclear fragmentation, hematoxylin-eosine and DAPI staining; format: cell-based, human; conditions: NB4, 24 h; S3 at 31.2 μg/mL
Description: Hematoxylin-eosine and DAPI (4′,6-diamidino-2-phenylindole, Sigma) stained cells were monitored under microscope to evaluated the type of cell death induced by the S3 fraction. In brief, cells treated with S3 fraction for 24 h at 37° C. under humidified atmosphere and 5% CO2, were plated onto microscope slides by cytocentrifugation (Vybra cytospin, Japan) for 5 min at 500 rpm, fixed with ethanol and stained with hematoxylin (2 min) and eosin (45 seconds). Excess dye was removed with ethanol (3 washes) and microscope slides were monitored and photographed under a light microscope (Olympus CH30, Japan) at a magnification of 100×. For DAPI staining, cells plated on glass cover slides (13 mm/-E) previously collagen-precoated (6-10 μg/cm2) at a density of 5×10^4 cells for 16 h, were treated with S3 fraction at 37° C. under humidified atmosphere and 5% CO2 for 24 h. Subsequently, cells were washed (PBS) and fixed with paraformaldehyde (2% in PBS) for 30 min at 4° C. After washing twice with PBS-BSA (1%), cells were incubated in cold acetone (1 min); washed (1% PBS-BSA) and incubated for 5 min with DAPI 300 nM (Sigma, St. Louis, Mo.). Slides with prolong antifade kit (Molecular Probes) were observed under a fluorescence microscope (Olympus, Japan).

[2] = test system: human peripheral blood mononuclear cells (PBMC); assay: Growth of human mononuclear cells, MTT; format: cell-based; conditions: PBMC with or without phytohemagglutinin, 30 h, F4 250 to 1.9 μg/ml
Description: For assays in normal cells, human peripheral blood mononuclear cells (PBMC) from healthy volunteers were separated by density gradient centrifugation (Ficoll-Hypaque, Amersham, Biosciences). PBMC were suspended in RPMI-1640 supplemented medium (10% FBS, 2 mM L-glutamine, 100 U/ml penicillin, 100 μg/ml streptomycin, 0.01 M Hepes) and incubated under humidified environment at 37° C. and 5% CO2.
Human PBMC were seeded (2×10^5 cells/well) on 96-well plates and incubated with or without phytohemagglutinin (PHA, GibcoBRL) for 12 h. Afterwards, PBMC were treated with F4 fraction (250 to 1.9 μg/ml), or vincristine for 30 h. After treatment cells were centrifuged, F4 fraction removed and lastly cells were carefully washed 3 times (PBS) before adding the MTT. Next 12 μl of MTT 12 mM [3-(4,5-dimethylthiazol-2-yl)-2,5-diphenyl tetrazolium bromide] (Molecular Probes, Eugene, Oreg., USA) in PBS was added to each well and incubated for 4 h at 37° C. Formazan crystals were dissolved with SDS-HCl 0.01M. MTT results were read at 540 nm in a Multiskan MCC/340 (LabSystems).

[3] = test system: tumor cell line A375; assay: Cell cycle distribution, propidium iodide flow cytometry; format: cell-based, human; conditions: A375, F4 at 31.2 μg/mL; 18% in no treatment cells
Description: After treatment, cells were washed and fixed with ethanol (ice-cold 70%) during 18 h. After fixing, cells were suspended in PBS 1×, 100 U/ml RNase, 50 μg/ml of propidium iodide (Sigma, St. Louis, Mo.) and incubated at room temperature for 30 min. Cell DNA content was measured by flow cytometry using a FACScalibur, (Becton Dickinson, Fullerton, Calif. For cytometric data 50,000 cellular events were collected per sample and analyzed with Cell Quest software (Becton Dickinson). Cell cycle distribution percentages are calculated by Modfit LT software. FACScalibur calibration is performed with the DNA QC Particle Kit (Becton Dickinson).

| effect over growth of normal mononuclear cells [2] | SMILES | type of cell death, hematoxylin-eosine staining [1] | G2 phase accumulation [3] |
| --- | --- | --- | --- |
| – | CN[C@@H]1C[C@H]2O[C@@](C)([C@@H]1OC)n1c3ccccc3c3c4c(c5c6ccccc6n2c5c31)C(=O)NC4 [staurosporine] | nuclear fragmentation and DNA fragmentation | – |
| lack of effect | CC[C@]1(O)C[C@H]2CN(CCc3c([nH]c4ccccc34)[C@@](C(=O)OC)(c3cc4c(cc3OC)N(C=O)[C@H]3[C@@](O)(C(=O)OC)[C@H](OC(C)=O)[C@]5(CC)C=CCN6CC[C@]43[C@@H]65)C2)C1 [vincristine] | – | ~80% |
